Values joined by “and” are separate entries in the source; they are usually repeats but may differ in a detail not shown here. Identical values can stand only once.
Experiments:
[1] = biological target: T1, hCXCR1 (Homo sapiens, UniProt P25024); experiment: CXCR1 SPA Assay ([125I]-IL-8 receptor binding); details: hCXCR1-CHO overexpressing membranes, [125I]-IL-8 0.05 nM
T1 construct: purchased Biosignal; host or cells: CHO cells (membranes)
T1 sequence (P25024 1-350): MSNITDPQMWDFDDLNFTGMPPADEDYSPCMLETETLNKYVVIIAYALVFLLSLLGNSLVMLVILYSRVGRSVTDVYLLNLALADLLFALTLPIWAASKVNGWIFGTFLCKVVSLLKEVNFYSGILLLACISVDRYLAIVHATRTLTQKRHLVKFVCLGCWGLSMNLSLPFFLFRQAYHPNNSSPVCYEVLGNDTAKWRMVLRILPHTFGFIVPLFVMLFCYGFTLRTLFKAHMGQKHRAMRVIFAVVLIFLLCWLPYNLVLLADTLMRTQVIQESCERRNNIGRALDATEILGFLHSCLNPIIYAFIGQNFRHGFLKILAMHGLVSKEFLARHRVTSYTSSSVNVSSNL
Protocol: For each well of a 96 well plate, a reaction mixture of 2.2 μg hCXCR1-CHO overexpressing membranes (Biosignal) and 100 μg/well WGA-SPA beads (Amersham) in 160 μl was prepared in CXCR1 assay buffer (25 mM HEPES, pH 7.8, 2 mM CaCl2, 1 mM MgCl2, 125 mM NaCl, 0.1% BSA) (Sigma). A 0.5 nM stock of ligand, [125I]-IL-8 (NEN) was prepared in the CXCR1 assay buffer. 10× stock solutions of test compounds were prepared in 10% DMSO (Sigma). The above solutions were added to a 96-well assay plate (PerkinElmer) as follows: 20 μl test compound or DMSO, 160 μl of reaction mixture, 20 μl of ligand stock (Final [Ligand]=0.05 nM). The assay plates were shaken for 5 minutes on plate shaker, then incubated for 12 hours before cpm/well were determined in Microbeta Trilux counter (PerkinElmer). % Inhibition of Total binding-NSB (250 nM IL-8) was determined for IC50 values.

[2] = biological target: T2, hCXCR2 (Homo sapiens, UniProt P25025); experiment: CXCR2 SPA Assay ([125I]-IL-8 receptor binding); details: hCXCR2-CHO overexpressing membranes, [125I]-IL-8 0.1 nM
T2 construct: purchased Biosignal; host or cells: CHO cells (membranes)
T2 sequence (P25025 1-360): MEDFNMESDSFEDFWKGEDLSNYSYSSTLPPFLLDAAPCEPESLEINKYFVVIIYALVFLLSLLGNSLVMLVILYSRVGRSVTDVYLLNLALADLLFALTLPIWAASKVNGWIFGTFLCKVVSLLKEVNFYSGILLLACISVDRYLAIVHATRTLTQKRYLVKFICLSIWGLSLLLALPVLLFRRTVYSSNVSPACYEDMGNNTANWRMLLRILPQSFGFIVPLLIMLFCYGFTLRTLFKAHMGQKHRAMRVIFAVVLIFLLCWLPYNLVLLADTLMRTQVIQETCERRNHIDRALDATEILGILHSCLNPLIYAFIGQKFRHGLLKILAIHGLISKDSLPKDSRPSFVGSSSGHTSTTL
Protocol: For each well of a 96 well plate, a reaction mixture of 2.5 μg hCXCR2-CHO overexpressing membranes (Biosignal) and 200 μg/well WGA-SPA beads (Amersham) in 160 μl was prepared in CXCR2 assay buffer (25 mM HEPES, pH 7.4, 2 mM CaCl2, 1 mM MgCl2). A 1 nM stock of ligand, [125I]-IL-8 (NEN), was prepared in the CXCR2 assay buffer. 10× stock solutions of test compounds were prepared in DMSO (Sigma). The above solutions were added to a 96-well assay plate (PerkinElmer or Corning) as follows: 20 μl test compound or DMSO, 160 μl of reaction mixture, 20 μl of ligand stock (Final [Ligand]=0.1 nM). The assay plates were shaken for 5 minutes on a plate shaker, then incubated for 12 hours before cpm/well were determined in Microbeta Trilux counter (PerkinElmer).

Compound	Ki [1]	Ki [2]	melting point
CN(C(C)(C)C)S(=O)(=O)c1scc(NC(=O)Nc2cccc(Cl)c2Cl)c1O [Example 20.14]	652 to 1920 nM and 652 nM	–	–
CC(C)(C)NS(=O)(=O)c1scc(NC(=O)Nc2cccc(Cl)c2Cl)c1O [Example 20.13]	652 to 1920 nM	–	–
O=C(Nc1csc(S(=O)(=O)N2CCC[C@H]2CO)c1O)Nc1cccc(Cl)c1Cl [Example 21.7]	652 to 1920 nM	5 to 91 nM and 5 to 10 nM	–
CCN(CC)S(=O)(=O)c1scc(NC(=O)Nc2cccc(Cl)c2Cl)c1O [Example 20.3]	652 to 1920 nM	5 to 91 nM	–
CC(C)NS(=O)(=O)c1scc(NC(=O)Nc2ccccc2Br)c1O [Example 20.12]	–	5 to 91 nM	–
CCN(C(C)(C)C)S(=O)(=O)c1scc(NC(=O)Nc2cccc(Cl)c2Cl)c1O [Example 20.15]	652 to 1920 nM	5 to 91 nM	–
CC(C)N(C)S(=O)(=O)c1scc(NC(=O)Nc2cccc(Cl)c2Cl)c1O [Example 21.4]	–	5 to 91 nM and 5 to 10 nM	–
O=C(Nc1csc(S(=O)(=O)N2CCCC2)c1O)Nc1cccc(Cl)c1Cl [Example 20.18]	652 to 1920 nM	5 to 91 nM	–
CCN(C)S(=O)(=O)c1scc(NC(=S)Nc2cccc(Cl)c2Cl)c1O [Example 22]	–	5 to 91 nM	112 to 115 °C
CN(C)S(=O)(=O)c1scc(NC(=O)Nc2ccccc2Br)c1O [Example 20.1]	–	5 to 91 nM	–
CC(C)CN(C)S(=O)(=O)c1scc(NC(=O)Nc2cccc(Cl)c2Cl)c1O [Example 21.3]	–	5 to 91 nM	–
CN(C1CCC1)S(=O)(=O)c1scc(NC(=O)Nc2cccc(Cl)c2Cl)c1O [Example 20.17]	–	5 to 91 nM	–
O=C(Nc1csc(S(=O)(=O)N2CCC[C@@H]2CO)c1O)Nc1cccc(Cl)c1Cl [Example 21.6]	652 to 1920 nM	5 to 91 nM and 5 to 10 nM	–
CN(C1CC1)S(=O)(=O)c1scc(NC(=O)Nc2cccc(Cl)c2Cl)c1O [Example 20.16]	652 to 1920 nM	5 to 91 nM and 5 to 10 nM and 6 nM	–
CCNS(=O)(=O)c1scc(NC(=O)Nc2ccccc2Br)c1O [Example 20.10]	–	5 to 91 nM	–
O=C(Nc1csc(S(=O)(=O)NC2CC2)c1O)Nc1cccc(Cl)c1Cl [Example 21.10]	652 to 1920 nM	5 to 91 nM	–
CCN1CCN(S(=O)(=O)c2scc(NC(=O)Nc3cccc(Cl)c3Cl)c2O)CC1 [Example 21.5]	652 to 1920 nM	5 to 91 nM	–
CN(C)S(=O)(=O)c1scc(NC(=O)Nc2cccc(Cl)c2Cl)c1O [Example 20]	–	5 to 91 nM	–
CCCN(C)S(=O)(=O)c1scc(NC(=O)Nc2cccc(Cl)c2Cl)c1O [Example 21.1]	–	5 to 91 nM and 5 to 10 nM	–
CC(C)NS(=O)(=O)c1scc(NC(=O)Nc2cccc(Cl)c2Cl)c1O [Example 20.11]	652 to 1920 nM	–	–
O=C(Nc1csc(S(=O)(=O)NC2(CO)CCCC2)c1O)Nc1cccc(Cl)c1Cl [Example 21.8]	–	5 to 91 nM	–
O=C(Nc1ccccc1Br)Nc1csc(S(=O)(=O)N2CCCC2)c1O [Example 20.19]	652 to 1920 nM	5 to 91 nM	–
NS(=O)(=O)c1scc(NC(=O)Nc2cccc(Cl)c2Cl)c1O [Example 20.21]	–	5 to 91 nM	–
CNS(=O)(=O)c1scc(NC(=O)Nc2cccc(Cl)c2Cl)c1O [Example 21.14]	652 to 1920 nM	5 to 91 nM and 5 to 10 nM	–
CC(C)[C@@H](CO)NS(=O)(=O)c1scc(NC(=O)Nc2cccc(Cl)c2Cl)c1O [Example 21.12]	–	5 to 91 nM	–
CCCCN(C)S(=O)(=O)c1scc(NC(=O)Nc2cccc(Cl)c2Cl)c1O [Example 21.2]	–	5 to 91 nM	–
CCN(C)S(=O)(=O)c1scc(NC(=O)Nc2cccc(Cl)c2Cl)c1O [Example 21]	–	5 to 91 nM	–
CCNS(=O)(=O)c1scc(NC(=O)Nc2cccc(Cl)c2Cl)c1O [Example 20.7]	–	5 to 91 nM	–

From patent US7326729B2, “CXCR1 and CXCR2 chemokine antagonists” (Schering Corporation, priority 2004, dated 2008)
